According to PubChem BioAssay (NCI):
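In this assay, cells in 96-well plates receive the compound at five concentrations for 48 hours. Endpoints are linearly interpolated between the surrounding concentrations. The concentration for full growth arrest is given as TGI.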

Legend:
Assay in all cases: NCI anticancer screen, dose series, 48 h
HOP-62 NSCLC = tested on: HOP-62 NSCLC
T-47D breast = tested on: T-47D breast
SNB-19 CNS = tested on: SNB-19 CNS
SF-539 CNS = tested on: SF-539 CNS
SK-MEL-5 melanoma = tested on: SK-MEL-5 melanoma
OVCAR-4 ovarian = tested on: OVCAR-4 ovarian
A549 NSCLC = tested on: A549 NSCLC
786-0 renal = tested on: 786-0 renal
HCT-15 colon = tested on: HCT-15 colon
TK-10 renal = tested on: TK-10 renal

| Structure (SMILES) | TGI (HOP-62 NSCLC) [µM] | TGI (T-47D breast) [µM] | TGI (SNB-19 CNS) [µM] | TGI (SF-539 CNS) [µM] | TGI (SK-MEL-5 melanoma) [µM] | TGI (OVCAR-4 ovarian) [µM] | TGI (A549 NSCLC) [µM] | TGI (786-0 renal) [µM] | TGI (HCT-15 colon) [µM] | TGI (TK-10 renal) [µM] |
| --- | --- | --- | --- | --- | --- | --- | --- | --- | --- | --- |
| CCOP(=O)(OCC)C(Nc1cccc(F)c1)c1ccccc1 (stereo not given) | > 100 | > 100 | > 100 | > 100 | > 100 | > 100 | > 100 | > 100 | > 100 | > 100 |
| Cc1cc(C)c(P2C(=C(O[Si](C(C)C)(C(C)C)C(C)C)C(C)(C)C)C2(c2ccccc2)c2ccccc2)c(C)c1 (stereo not given) | > 100 | > 100 | > 100 | > 100 | > 100 | > 100 | > 100 | > 100 | > 100 | > 100 |
| CCNc1ccc2c(c1)Cc1ccccc1-2 | > 100 | > 100 | > 100 | > 100 | > 100 | > 100 | > 100 | > 100 | > 100 | > 100 |
| O=C(CSCC(=O)N/N=C/c1cccs1)N/N=C/c1cccs1 | > 100 | > 100 | > 100 | > 100 | > 100 | > 100 | > 100 | > 100 | > 100 | > 100 |
| COc1ccc2c(c1)C(N)=C(c1ccccc1)C2=O | > 100 | > 100 | > 100 | > 100 | > 100 | > 100 | > 100 | > 100 | > 100 | > 100 |
| CN(C)/N=C/c1cn(C)c(=O)n(C)c1=O | > 100 | > 100 | > 100 | > 100 | > 100 | > 100 | > 100 | > 100 | > 100 | > 100 |
| O=[N+]([O-])c1ccc(S[C@@H]2[C@H]3c4c(-c5ccccc5)[nH]c(-c5ccccc5)c4[C@@H]2C[C@H]3Cl)cc1 | 67.6 | 8.67 | > 100 | > 100 | 23.5 | 5.4 | > 100 | 23.8 | 6.84 | > 100 |
| Cc1ccncc1.F[B-](F)(F)F.[Pt+2].c1ccc(-c2cccc(-c3ccccn3)n2)nc1 | > 55.2 | 42.9 | > 66.7 | 15.1 | 21.7 | > 100 | > 75.7 | 46.4 | 38.1 | 28.5 |
| Cc1ccc(C(=O)N/N=C(\N=Nc2cccc(Cl)c2)c2ccc(N(CCC#N)CCC#N)cc2C)cc1 | > 100 | > 100 | > 100 | > 100 | > 100 | > 100 | > 100 | > 100 | > 100 | > 100 |
| COc1cc(/C=C/C(=O)c2c(=O)o[nH][n+]2-c2ccccc2)ccc1[O-] | 16 | 11.7 | 17.4 | 5.92 | 15 | 7.17 | 14.8 | 4.94 | 6.12 | 10.5 |
| CCOC(=O)c1c(CN2CCNCC2)nc2ccccc2c1-c1ccccc1 | 31 | 30 | 33.6 | 34.8 | 28.5 | 33.1 | 33.1 | 25.3 | 32.8 | 27.3 |
| Cc1ccc(S(=O)(=O)NNC(=O)c2cc(C)ccc2NC(=O)C23CC4CC(CC(C4)C2)C3)cc1 | > 100 | > 100 | 57.2 | > 100 | > 100 | 78.5 | > 100 | 57.3 | 66.8 | > 100 |
| COc1cc2c(cc1OCCCC(=O)Nc1cc(C(=O)Nc3cc(C(=O)Nc4cc(C(=O)NCCCN(C)C)n(C)n4)n(C)n3)n(C)n1)N=CC1CCCN1C2=O (stereo not given) | > 100 | > 100 | 54.4 | > 100 | 47.4 | 35.7 | > 100 | > 100 | > 100 | 40.7 |
| NC(=S)N/N=C\c1ccc(OCc2cccc(COc3ccc(/C=N/NC(N)=S)cc3)n2)cc1 | > 100 | 0.921 | > 100 | > 100 | 24.4 | > 100 | > 100 | > 100 | > 100 | > 100 |
